Entries after “also recorded” stand apart in the source; their conditions may differ.
Assays:
mammary tumors = experiment: Mammary tumor formation after carcinogenesis in Pax8PPARγ transgenic mice; format: in vivo; conditions: MMTV-Pax8PPARγ transgenic mice, ER(+) carcinomas; 200 mg/kg subcutaneously once a week for three months after carcinogen administration
Description: FIG. 2 is a bar graph showing the total number of mammary tumors appearing in transgenic MMTV-Pax8PPARγ FVB mice treated with either vehicle or ERα antagonist fulvestrant, 200 mg/kg subcutaneously once per week for three months after carcinogen administration.
Mammary carcinogenesis (see, e.g., Yin et al., Characterization of medroxyprogesterone and DMBA-induced multilineage mammary tumors by gene expression. Mol. Carcinogenesis 42:pp. 42-50, (2005)) was induced in Pax8PPARγ transgenic mice, which mammary carcinomas are ER(+) and were treated once a week for three months with the ER antagonist fulvestrant at a dose of 200 mg/kg administered subcutaneously in an oil emulsion. […] Each experimental group consisted of 6 mice. FIG. 2 indicates the total number of mammary tumors appearing three months after carcinogen administration.

ERα = ERα detection by immunochemical staining of DMBA/progestin-induced mammary carcinomas; format: in vivo; conditions: wild-type FVB mice, medroxyprogesterone/DMBA-induced carcinogenesis, 40 mg/kg subcutaneously, weekly, for 12 weeks, rabbit polyclonal antibody
Description: FIG. 1 illustrates ER detection by immunochemical staining with a rabbit polyclonal antibody of dimethylbenz(α)anthracene (DMBA)/progestin-induced mammary carcinomas of wild-type FVB mice, transgenic MMTV-Pax8PPARγ FVB mice and GW9662-treated mice, with 40 mg/kg, subcutaneously, weekly, for 12 weeks.
Mammary carcinogenesis was induced in female wild-type FVB/N or MMTV-Pax8PPARγ transgenic mice purchased from Charles River Laboratories (Wilmington, Mass.) by subcutaneous injection of 600 mg/kg medroxyprogesterone acetate suspension (150 mg/ml, Sicor Pharmaceuticals Inc., Irvine, Calif.), followed one week later by four weekly oral doses of 1 mg dimethylbenz(a)anthracene (DMBA) dissolved in cottonseed oil (10 mg/ml). Following the last dose of DMBA, mice were injected subcutaneously once a week with 40 mg/kg GW9662 dissolved in cottonseed oil (10 mg/ml). […]
Mammary carcinomas from transgenic MMTV-Pax8PPARγ FVB mice stained intensely for ERα, particularly in the basal layer of cells, as compared to low ERα staining in ductal epithelium from wild-type FVB mice (see FIG. 1). […] ERα was detected by immunochemical staining with a rabbit polyclonal antibody (Santa Cruz Biotechnology, sc-542) diluted 1:1000.

Row | SMILES | tumor formation (total number of mammary tumors) (mammary tumors) | ERα expression (immunochemical staining) in mammary carcinomas (ERα)
1 | C[C@]12CC[C@@H]3c4ccc(O)cc4C[C@@H](CCCCCCCCC[S+]([O-])CCCC(F)(F)C(F)(F)F)[C@H]3[C@@H]1CC[C@@H]2O (some centres unmarked) [fulvestrant] | completely inhibited tumor formation | 
2 | O=C(Nc1ccccc1)c1cc([N+](=O)[O-])ccc1Cl [GW9662, 2-Chloro-5-nitrobenzanilide] |  | substantial ERα staining; also recorded: pattern of ERα expression similar to MMTV-Pax8PPARγ mice
